In the experiment the test system is A549. Description: cells. The note with it: Homo sapiens, A549, read-out: IC50 nM.

The text below walks through data of paper doi:10.1101/041947v2 (biorxiv, 2016).

In general, IC50 refers to the concentration at which inhibition is half-maximal.

For `CC[C@]1(O)C[C@@H]2CN(CCc3c([nH]c4ccccc34)[C@@](C(=O)OC)(c3cc4c(cc3OC)N(C)[C@H]3[C@@](O)(C(=O)OC)[C@H](OC(C)=O)[C@]5(CC)C=CCN6CC[C@]43[C@@H]65)C2)C1` [Vinblastine], the IC50 stood at 4.2 nM.
